Reference: patent US20220304286A1, “SYSTEMS AND METHODS FOR IN VIVO DUAL RECOMBINASE-MEDIATED CASSETTE EXCHANGE (dRMCE) AND DISEASE MODELS THEREOF” (CEDARS-SINAI MEDICAL CENTER, priority 2019, published 2022)
“Also recorded” adds a separate entry of the source.

Legend:
MADR K27M tumor cells = experiment: High-throughput drug testing: live-cell imaging of proliferation, MADR K27M tumor cell lines; type: cell-based, mouse; conditions: imaged for 92 hours, Incucyte phase contrast, 4 biological replicates
Method: (§1) In high-throughput drug testing experiments, 10.000 cell from the cell lines generated from tumor dissociation and non-tumor control cells were plated in 96 well plates. 24 hours after the seeding appropriate concentration of each drug (1 μM for Vacquinol-1(Sigma-Aldrich, SML1187) and 0.5 μM for AKT 1/2 kinase inhibitor (Sigma- Aldrich, A6730)) was added to the media and cells were imaged for 92 hours in phase contrast using Incucyte S3 System. Images were collected every 2 hours using Incucyte S3 Software. Cell proliferation images analysis was done with Incucyte S3 software and normalized results presented and analyzed with Graphpad Prism 7.
(§2) Mice were euthanized in CO2 chamber and brains were collected in PBS. Immediately, EGFP+ tissue was micro-dissected under a Revolve Hybrid Microscope (Echo Labs, San Diego, Calif.). If allowed by the size of the tumor, some remains of the brain with residual tumor tissue was fixed in 4% PFA for tissue analysis. Microdissected tissue was mechanically dissociated into <1 mm pieces and further digested with Collagenase IV (Worthington Biochemical, Lakewood, N.J.), and DNAse I (Worthington Biochemical, Lakewood, N.J.). The resultant single cell suspension was filtered through […] cell strainer (Stellar Scientific, Baltimore, Md.) and erythrocytes were lysed with ACK lysis buffer (Thermo Fisher Scientific, Waltham, Mass.). […]

[1] = system: NPCs (tdTomato+ non-tumor control cells); experiment: High-throughput drug testing: live-cell imaging of proliferation, non-tumor control NPCs; type: cell-based, mouse; conditions: imaged for 92 hours, paired toxicity screening
Method: as §1
as §2, with “Mass.). Single cell suspensions were split into 3 parts: First, for scRNAseq or sc-ATACseq experiments, GFP+ cells from single cell samples were FACS sorted (into 1.5 ml tubes for 10× Chromium). A secondary fraction was used for in vitro cell line establishment.” for “Mass.).”

K27M tumor cells = conditions: earlier finding, no details given; cited from earlier work
[2] = AKT 1/2 kinase inhibitor 0.5 μM

| Compound | cell proliferation of K27M tumor population (MADR K27M tumor cells; [2]) | cell proliferation of NPCs [1, 2] | cell proliferation of NPCs ([1]; AKT 1/2 kinase inhibitor 0.5 μM, listed as Akt1/2 inhibitor) | toxicity to K27M tumor cells (previously identified) (K27M tumor cells) | cell proliferation of K27M tumor population (MADR K27M tumor cells; Vacquinol-1 1 μM) | cell proliferation of NPCs ([1]; Vacquinol-1 1 μM) |
| --- | --- | --- | --- | --- | --- | --- |
| O=c1[nH]c2ccccc2n1C1CCN(Cc2ccc(-c3nc4cc5nc[nH]c5cc4nc3-c3ccccc3)cc2)CC1 [Akt1/2 kinase inhibitor] | decreases proliferation | decreases proliferation | similarly inhibited NPC proliferation | selectively toxic to K27M tumor cells | – | – |
| OC(c1cc(-c2ccc(Cl)cc2)nc2ccccc12)C1CCCCN1 (stereo not shown) [Vacquinol-1] | – | – | – | selectively toxic to K27M tumor cells | inhibits K27M growth; also recorded: decreases proliferation preferentially | does not alter NPC culture growth |
